{
  "source": "patent US20060112446A1",
  "about": "“Transposon genes of rice, transformed plant and method of use” (priority 2001, published 2006)",
  "key": {"[1]": {"tested_on": "transposon gene with the nucleotide sequence of Sequence Number 3 in scutellum-derived calli", "experiment": "PCR detection of deletion (transposition) of the autonomous transposon gene in scutellum-derived calli treated with 5-azacytidine (Example 9)", "assay_type": "cell-based, rice (Oryza sativa), cultivar Nihonbare", "conditions": "for The frequency of deletion (calli with deletion/calli examined) / The frequency of deletion (percent): scutellum-derived Nihonbare calli, 2 weeks growth culture", "method": "In this example, we examined the transposition activity of the nucleotide sequence of Sequence Number 3 in anther-derived calli and in scutellum-derived calli treated with 5-azacytidine.\nSeeds of Nihonbare, a rice cultivar, were sterilized in3% sodium hypochlorite solution for 15˜30 min, washed with sterilized water, inoculated on a 90×20 mm of Petri dish (Iwaki Co.) with 20˜30 ml of media at the rate of 9 seeds per dish and subjected to induction culture under light for 24 h at 30° C. Used was a solid medium consisting of 4 g of CHU (N6) BASAL SALT MIXTURE® (Sigma Co.), 1 ml of MS VITAMIN SOLUTION® (Sigma Co.), 2 mg of 2,4-dichloro-phenoxyacetic acid (Sigma Co.), 0.3 g of casamino acids (DIFCO), 0.1 g of myo-inositol (Sigma Co.), 2.878 g proline (Wako), 30 g of sucrose (Wako), 2 g of GELRITE® (Wako) in 1 L of medium. On the 10th day of inductive culture, the calli derived from induced seeds were transferred to a growth medium supplemented with 5-azacytidine (Sigma) at 0 mM, 0.1 mM or 0.5 mM and were subjected to growth culture underlight for 24 h at 33° C. Used was a solid medium consisting of 4 g of CHU (N6) BASAL SALT MIXTURE® (Sigma Co.), 1 ml of MS VITAMIN SOLUTION® (Sigma Co.), 2 mg of 2,4-dichloro-phenoxyacetic acid (Sigma Co.), 0.3 g of casamino acids (DIFCO), 0.1 g of myo-inositol (Sigma Co.), 2.878 g proline (Wako), 30 g of sucrose (Wako), 2 g of GELRITE® (Wako) in 1 L of medium. DNA was extracted from calli derived from seeds in growth culture for two weeks by DNEASY PLANT MINI KIT® (Qiagen).\nTo amplify the DNA region containing the transposon DNA by PCR, we used the oligonucleotides comprising the sequences of Sequence Numbers 26 and 27 as PCR primers. Each reaction mixture (100 μl) contained 200 ng of DNA, 2.5 units of TAKARA LA TAQ® (Takara Co.), 10 μl of 10× LA PCR bufferII, 6 µl of 25 mM MgCl2, 8 μl of dNTP Mixture (2.5mM each dNTP) and 100 pmol of primers. Each cycle of the polymerase reaction consisted of a denaturation step at 94° C. for 30 sec and an extension step at 68° C. for 12 min. This cycle was repeated 35 times. After the reaction, PCR products were separated on 0.8% LO3 AGAROSE® (Takara Co.) gel electrophoresis."}, "[2]": {"tested_on": "transposon gene (430 bp, Sequence Number 1) in calli derived from Nihonbare seeds", "experiment": "PCR detection of deletion (transposition) of the nonautonomous transposon gene in seed-derived calli grown on 5-azacytidine medium (Example 5)", "assay_type": "cell-based, rice (Oryza sativa), cultivar Nihonbare", "method": "Seeds of Nihonbare were sterilized in 3% sodium hypochlorite solution for 15˜30 min, washed with sterilized water, inoculated on a 90×20 mm of Petri dish (Iwaki Co.) containing 20˜30 ml of media at the rate of 9 seeds per dish and subjected to induction culture under light for 24 h at 30° C. We used a solid medium consisting of 4 g of CHU (N6) BASAL SALT MIXTURE® (Sigma Co.), 1 ml of MS VITAMIN SOLUTION® (Sigma Co.), 2 mg of 2,4-dichloro-phenoxyacetic acid (Sigma Co.), 0.3 g of casamino acids (DIFCO), 0.1 g of myo-inositol (Sigma Co.), 2.878 g proline (Wako), 30 g of sucrose (Wako), 2 g of Gelrite® (Wako) in 1 L of medium.\nAfter several days, calli were started forming from scutellum inside rice seeds and changed to cream-colored ones with 5 mm length on the 10th day of culture. The creamy-colored calli with 5mm length were transplanted to growth media supplemented with 5-azacytidine (Sigma Co.) at either 0 mM, 0.01 mM, 0.03 mM, 0.05 mM, 0.1 mM or 0.3 mM, respectively, and subjected to growth culture under light for 24 h at 30° C. We used a solid medium consisting of 4 g of CHU (N6) BASAL SALT MIXTURE® (Sigma Co.), 1 ml of MS VITAMIN SOLUTION® (Sigma Co.), 2 mg of 2, 4-dichloro-phenoxyacetic acid (Sigma Co.), 0.3 g of casamino acids (DIFCO), 0.1 g of myo-inositol (Sigma Co.), 2.878 g proline (Wako), 30 g of sucrose (Wako), 2 g of GELRITE® (Wako) in 1 L of medium. […]"}},
  "data": [
    {"molecule": "Nc1ncn([C@@H]2O[C@H](CO)[C@@H](O)[C@H]2O)c(=O)n1", "note": "[5-azacytidine]", "values": [
      {"measurement": "The frequency of deletion (calli with deletion/calli examined)", "setting": "[1]; 0.1 mM 5-azacytidine", "value": "2/8"},
      {"measurement": "The frequency of deletion (percent)", "setting": "[1]; 0.1 mM 5-azacytidine", "value": "(25%)"},
      {"measurement": "The frequency of deletion (calli with deletion/calli examined)", "setting": "[1]; 0.5 mM 5-azacytidine", "value": "7/8"},
      {"measurement": "The frequency of deletion (percent)", "setting": "[1]; 0.5 mM 5-azacytidine", "value": "(87.5%)"},
      {"measurement": "Transposition of the transposon gene of Sequence Number 3", "setting": "[1]; scutellum-derived calli treated with 5-azacytidine", "value": "high frequency of transposition"},
      {"measurement": "DNA bands in PCR of the region containing the transposon gene (approx. 300 bp band = transposon gene deleted)", "setting": "[2]; seed-derived Nihonbare calli, 0.03 mM-0.3 mM 5-azacytidine in growth medium, 2 weeks growth culture", "value": "Two DNA bands of approximately 730 bp and 300 bp were observed"},
      {"measurement": "Induction of transposition of the transposon gene", "setting": "[2]; seed-derived calli, 5-azacytidine treatment", "value": "could be induced even for seed-derived calli"}
    ]}
  ]
}
